# Like-named read-outs stand apart in the source and are kept apart here.
# Columns and labels:
# Type in all cases: in vivo
# [1] = test system: Diamond back moth (Plutella xylostella); experiment: CE.6 Diamond back moth, contact activity, comparative test; details: read-out: % mortality in comparison to untreated controls
# Description: (§1) The tables show % mortality in comparison to untreated controls.
# CE.6 Diamond Back Moth (Plutella xylostella)
# Ten third-instar larvae are sprayed with 1 ml test solution and introduce to untreated leaves held petri dished lined with moist filter paper. Mortality is recorded 24, 72, and 120 hours after treatment.
# [2] = test system: Diamond back moth (Plutella xylostella); experiment: B.1 Diamond back moth, cabbage leaf dip; details: foliar, 72 h, read-out: mortality in comparison with untreated controls
# Description: B.1 Diamond back moth (Plutella xylostella)
# The active compound was dissolved at the desired concentration in a mixture of 1:1 (vol:vol) distilled water:acetone. Surfactant (Kinetic HV) was added at a rate of 0.01% (vol/vol). The test solution was prepared at the day of use.
# Leaves of cabbage were dipped in test solution and air-dried. Treated leaves were placed in petri dishes lined with moist filter paper and inoculated with ten 3rd instar larvae. Mortality was recorded 72 hours after treatment. Feeding damages were also recorded using a scale of 0-100%.
# [3] = test system: Green Peach Aphid (Myzus persicae); experiment: B.2 Green peach aphid, artificial diet, systemic; details: 72 h, read-out: mortality in comparison with untreated controls
# Excerpt: B.2 Green Peach Aphid (Myzus persicae)
# For evaluating control of green peach aphid (Myzus persicae) through systemic means the test unit consisted of 96-well-microtiter plates containing liquid artificial diet under an artificial mem brane.
# The compounds were formulated using a solution containing 75% v/v water and 25% v/v DMSO. Different concentrations of formulated compounds were pipetted into the aphid diet, using a custom built pipetter, at two replications.
# After application, 5-8 adult aphids were placed on the artificial membrane inside the microtiter plate wells. The aphids were then allowed to suck on the treated aphid diet and incubated at about 23±1° C. and about 50±5% relative humidity for 3 days. Aphid mortality and fecundity was then visually assessed.
# [4] = test system: Vetch Aphid (Megoura viciae); experiment: B.3 Vetch aphid, broad bean leaf disks; details: foliar, 120 h, read-out: mortality in comparison with untreated controls
# Description: B.3 Vetch Aphid (Megoura viciae)
# For evaluating control of vetch aphid (Megoura viciae) through contact or systemic means the test unit consisted of 24-well-microtiter plates containing broad bean leaf disks.
# The compounds were formulated using a solution containing 75% v/v water and 25% v/v DMSO. Different concentrations of formulated compounds were sprayed onto the leaf disks at 2.5 μl, using a custom built micro atomizer, at two replications.
# After application, the leaf disks were air-dried and 5-8 adult aphids placed on the leaf disks inside the microtiter plate wells. The aphids were then allowed to suck on the treated leaf disks and incubated at about 23±1° C. and about 50±5% relative humidity for 5 days. Aphid mortality and fecundity was then visually assessed.
# [5] = test system: Tobacco Budworm (Heliothis virescens); experiment: B.4 Tobacco budworm, insect diet with eggs; details: 120 h, read-out: mortality in comparison with untreated controls
# Description: B.4 Tobacco Budworm (Heliothis virescens)
# For evaluating control of tobacco budworm (Heliothis virescens) the test unit consisted of 96-well-microtiter plates containing an insect diet and 15-25 H. virescens eggs.
# The compounds were formulated using a solution containing 75% v/v water and 25% v/v DMSO. Different concentrations of formulated compounds were sprayed onto the insect diet at 10 μl, using a custom built micro atomizer, at two replications.
# After application, microtiter plates were incubated at about 28±1° C. and about 80±5% relative humidity for 5 days. Egg and larval mortality was then visually assessed.
# [6] = test system: Boll Weevil (Anthonomus grandis); experiment: B.5 Boll weevil, insect diet with eggs; details: 120 h, read-out: mortality in comparison with untreated controls
# Description: B.5 Boll Weevil (Anthonomus grandis)
# For evaluating control of boll weevil (Anthonomus grandis) the test unit consisted of 96-well-microtiter plates containing an insect diet and 5-10 A. grandis eggs.
# The compounds were formulated using a solution containing 75% v/v water and 25% v/v DMSO. Different concentrations of formulated compounds were sprayed onto the insect diet at 5 μl, using a custom built micro atomizer, at two replications.
# After application, microtiter plates were incubated at about 25±1° C. and about 75±5% relative humidity for 5 days. Egg and larval mortality was then visually assessed.
# [7] = test system: Orchid Thrips (Dichromothrips Corbetti); experiment: B.7 Orchid thrips, floral immersion; details: Thrips, 72 h, read-out: mortality in comparison with untreated controls
# Description: B.7 Orchid Thrips (Dichromothrips Corbetti)
# Dichromothrips corbetti adults used for bioassay were obtained from a colony maintained continuously under laboratory conditions. For testing purposes, the test compound is diluted in a 1:1 mixture of acetone:water (vol:vol), plus Kinetic HV at a rate of 0.01% v/v.
# Thrips potency of each compound was evaluated by using a floral-immersion technique. All petals of individual, intact orchid flowers were dipped into treatment solution and allowed to dry in Petri dishes. Treated petals were placed into individual re-sealable plastic along with about 20 adult thrips. All test arenas were held under continuous light and a temperature of about 28° C. for duration of the assay. After 3 days, the numbers of live thrips were counted on each petal. The percent mortality was recorded 72 hours after treatment.
# [8] = test system: Rice Green Leafhopper (Nephotettix virescens); experiment: B.8 Rice green leafhopper, sprayed rice seedlings; details: 72 h, read-out: mortality in comparison with untreated controls
# Description: B.8 Rice Green Leafhopper (Nephotettix virescens)
# (§2) Rice seedlings were cleaned and washed 24 hours before spraying. The active compounds were formulated in 1:1 acetone:water (vol:vol), and 0.01% vol/vol surfactant (Kinetic HV) was added. Potted rice seedlings were sprayed with 5-6 ml test solution, air dried, covered with Mylar cages and inoculated with 10 adults. Treated rice plants were kept at about 28-29° C. and relative humidity of about 50-60%. Percent mortality was recorded after 72 hours.
# [9] = test system: Red Spider Mite (Tetranychus kanzawai); experiment: B.9 Red spider mite, sprayed cowpea beans; details: 72 h, read-out: mortality in comparison with untreated controls
# Description: B.9 Red Spider Mite (Tetranychus kanzawai)
# The active compound was dissolved at the desired concentration in a mixture of 1:1 (vol:vol) distilled water:acetone. Add surfactant (Kinetic HV) was added at a rate of 0.01% (vol/vol).The test solution was prepared at the day of use.
# Potted cowpea beans of 4-5 days of age were cleaned with tap water and sprayed with 1-2 ml of the test solution using air driven hand atomizer. The treated plants were allowed to air dry and afterwards inoculated with 30 or more mites by clipping a cassava leaf section from rearing population. Treated plants were placed inside a holding room at about 25-27° C. and about 50-60% relative humidity. Percent mortality was assessed 72 hours after treatment.
# [10] = test system: Green Soldier Stink Bug (Nezara viridula); experiment: B.11 Green soldier stink bug, sprayed soybean pods; details: 120 h, read-out: mortality in comparison with untreated controls
# Description: B.11 Green Soldier Stink Bug (Nezara viridula)
# The active compound was dissolved at the desired concentration in a mixture of 1:1 (vol:vol) distilled water:acetone. Surfactant (Kinetic HV) was added at a rate of 0.01% (vol/vol). The test solution was prepared at the day of use. Soybean pods were placed in glass Petri dishes lined with moist filter paper and inoculated with ten late 3rd instar N. viridula. Using a hand atomizer, approximately 2 ml solution is sprayed into each Petri dish. Assay arenas were kept at about 25° C. Percent mortality was recorded after 5 days.
# [11] = test system: Neotropical Brown Stink Bug (Euschistus heros); experiment: B.12 Neotropical brown stink bug, dipped pole bean; details: 120 h, read-out: mortality in comparison with untreated controls
# Description: B.12 Neotropical Brown Stink Bug (Euschistus heros)
# For evaluating control of Euschistus heros through contact the test unit consisted of 100 ml disposable plastic beakers with transparent lids.
# The compounds were formulated using a solution containing 50% water and 50% acetone. 50 ml of different concentrations of formulated compounds or mixtures were prepared in a glass petri dish and used for dipping three 6 cm sections of fresh pole bean. Each treatment was replicated eight times.
# After application, the pole bean sections were air-dried and 5 adult E. heros placed in each beaker. The E. heros were then allowed to suck on the treated pole bean sections and incubated at 23±1° C., 50±5% RH for 5 days. E. heros mortality was then visually assessed.
# [12] = test system: Cowpea Aphid (Aphis Craccivora); experiment: CE.1 Cowpea aphid, comparative test; details: read-out: % mortality in comparison to untreated controls; for mortality at 300 ppm: sprayed cowpea plants
# Description: as §1
# CE.1 Cowpea Aphid (Aphis Craccivora)
# Potted cowpea plants colonized with approximately 100-150 aphids of various stages were sprayed after the pest population has been recorded. Population reduction was assessed after 24, 72, and 120 hours.
# [13] = test system: Rice Green Leafhopper (Nephotettix virescens); experiment: CE.5 Rice green leafhopper, comparative test; details: read-out: % mortality in comparison to untreated controls
# Description: as §1
# CE.5 Rice Green Leafhopper (Nephotettix virescens)
# as §2, with “50:50” for “1:1”, “0.1%” for “0.01%”, “(EL 620)” for “(Kinetic HV)”, “5” for “5-6”, “placed in” for “covered with Mylar”
# [14] = test system: Rice Brown Plant Hopper (Nilaparvata lugens); experiment: CE.2 Rice brown plant hopper, comparative test; details: 10 ppm, after 72 hours, read-out: % mortality in comparison to untreated controls
# Description: as §1
# CE.2 Rice Brown Plant Hopper (Nilaparvata lugens)
# as §2, with “50:50” for “1:1”, “(vol:vol)” for “(vol:vol),”, “0.1%” for “0.01%”, “(EL 620)” for “(Kinetic HV)”, “5” for “5-6”, “placed in” for “covered with Mylar”
# [15] = test system: Orchid Thrips (Dichromothrips Corbetti); experiment: CE.3 Orchid thrips, comparative test; details: 96 h, 10 ppm, after 4 days, read-out: % mortality in comparison to untreated controls
# Description: as §1
# CE.3 Orchid Thrips (Dichromothrips Corbetti)
# Dichromothrips corbetti adults used for bioassay were obtained from a colony maintained continuously under laboratory conditions. For testing purposes, the test compound was diluted to a concentration of 300 ppm (wt compound: vol diluent) in a 1:1 mixture of acetone:water (vol:vol), plus 0.01% vol/vol Kinetic® surfactant.
# Thrips potency of each compound was evaluated by using a floral-immersion technique. Plastic petri dishes were used as test arenas. All petals of individual, intact orchid flowers were dipped into treatment solution and allowed to dry. Treated flowers were placed into individual petri dishes along with 10-15 adult thrips. The petri dishes were then covered with lids. All test arenas were held under continuous light and a temperature of about 280C for duration of the assay. After 4 days, the numbers of live thrips were counted on each flower, and along inner walls of each petri dish. The level of thrips mortality was extrapolated from pre-treatment thrips numbers.
SMILES,mortality at 0.1 ppm [1] [%],mortality at 300 ppm [2] [%],mortality at 2500 ppm [3] [%],mortality at 2500 ppm [4] [%],mortality at 2500 ppm [5] [%],mortality at 2500 ppm [6] [%],mortality at 300 ppm [7] [%],mortality at 300 ppm [8] [%],mortality at 300 ppm [9] [%],mortality at 300 ppm [10] [%],mortality at 500 ppm [11] [%],mortality at 10 ppm [12] [%],mortality at 3 ppm ([13]; 72 h) [%],mortality at 300 ppm [12] [%],mortality at 10 ppm [14] [%],"mortality at 3 ppm ([13]; 3 ppm, after 72 hours) [%]",mortality at 10 ppm [15] [%]
"CCN1CCC(NC(=O)c2ccc(C3=NOC(c4cc(Cl)c(F)c(Cl)c4)(C(F)(F)F)C3)c3c2CCC3)C1=O (centres unmarked) [Tab. 127, A-9 of WO 2015128358, reference compound]",0,–,–,–,–,–,–,–,–,–,–,–,–,–,–,–,–
Cc1cc(C2=NOC(c3cc(Cl)cc(Cl)c3)(C(F)(F)F)C2)ccc1C(=O)N[C@@H]1CC(=O)N(C)C1=O (some centres unmarked) [Compound I-1-28],–,> 75,> 75,> 75,> 75,> 75,> 75,> 75,> 75,> 75,> 75,50,79,–,–,–,–
"CN1CCC(NC(=O)c2ccc(C3=NOC(c4cc(Cl)c(F)c(Cl)c4)(C(F)(F)F)C3)c3c2CCC3)C1=O (centres unmarked) [Tab. 126, A-9 of WO 2015128358, reference compound]",0,–,–,–,–,–,–,–,–,–,–,–,–,–,–,–,–
Cc1cc(C2=NOC(c3cc(Cl)c(F)c(Cl)c3)(C(F)(F)F)C2)ccc1C(=O)N[C@@H]1CC(=O)N(C)C1=O (some centres unmarked) [Compound I-1-27],100,> 75,> 75,> 75,> 75,> 75,> 75,> 75,> 75,> 75,–,93,83,–,–,–,–
Cc1cc(C2=NSC(c3cc(Cl)cc(Cl)c3)(C(F)(F)F)C2)ccc1C(=O)NC1CCN(C)C1=O (centres unmarked) [No. 2-201 of WO 2013/092943],–,–,–,–,–,–,–,–,–,–,–,–,–,0,0,0,–
"O=C(N[C@@H]1CC(=O)N(C2CC2)C1=O)c1ccc(C2=NO[C@@](c3cc(Cl)c(F)c(Cl)c3)(C(F)(F)F)C2)cc1Cl [Compound I-1-25, 2-Chloro-N-[(3R)-1-cyclopropyl-2,5-dioxo-pyrrolidin-3-yl]-4-[(5S)-5-(3,5-dichloro-4-fluoro-phenyl)-5-(trifluoromethyl)-4H-isoxazol-3-yl]benzamide]",–,> 75,> 75,> 75,> 75,> 75,> 75,> 75,> 75,> 75,> 75,–,–,–,–,–,–
"Cc1cc(C2=NSC(c3cc(Cl)cc(Cl)c3)(C(F)(F)F)C2)ccc1C(=O)NC1CCN(CC(F)(F)F)C1=O (centres unmarked) [No. 2-195 of WO 2013/092943, reference compound]",–,–,–,–,–,–,–,–,–,–,–,–,–,0,25,0,0
CCN1C(=O)C[C@@H](NC(=O)c2ccc(C3=NO[C@@](c4cc(Cl)c(F)c(Cl)c4)(C(F)(F)F)C3)cc2Cl)C1=O [Compound I-1-21],97,> 75,> 75,> 75,> 75,> 75,> 75,> 75,> 75,> 75,–,–,–,–,–,–,–
